Assays:
PPARα = biological target: T1, PPARα (Rattus norvegicus, UniProt P37230); test: HD bDNA Assay (HD gene induction, H4IIE rat hepatoma cell line); assay type: cell-based; settings: assay not named, values equal the PPARα column
T1 construct: H4IIE rat hepatoma cell line was obtained from ATCC; host or cells: H4IIE rat hepatoma cells
T1 sequence (P37230 1-468): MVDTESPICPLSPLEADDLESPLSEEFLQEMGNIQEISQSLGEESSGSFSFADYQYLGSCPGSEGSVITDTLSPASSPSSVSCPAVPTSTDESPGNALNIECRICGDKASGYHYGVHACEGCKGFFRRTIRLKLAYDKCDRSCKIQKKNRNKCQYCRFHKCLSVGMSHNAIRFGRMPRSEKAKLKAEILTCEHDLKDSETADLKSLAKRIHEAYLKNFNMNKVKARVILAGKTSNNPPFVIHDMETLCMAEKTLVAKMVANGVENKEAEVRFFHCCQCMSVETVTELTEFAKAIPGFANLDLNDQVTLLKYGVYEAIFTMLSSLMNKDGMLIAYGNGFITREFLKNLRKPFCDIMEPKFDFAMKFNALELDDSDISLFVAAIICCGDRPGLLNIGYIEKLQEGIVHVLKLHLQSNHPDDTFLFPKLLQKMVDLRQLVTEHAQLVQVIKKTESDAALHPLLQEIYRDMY
Description: H4IIE rat hepatoma cell line was obtained from ATCC. Cells were cultured in 175 cm^2 tissue culture flask or seeded in 96-well plate with (high serum content, 10% fetal bovine serum and 10% calf serum) culture medium and maintained at 37° C. and 5% CO2 throughout study. Twenty-four hours after the initial seeding of the 96-well plate by hand (approximate 100,000/well), the HD gene induction assay was initiated. Media was removed and replaced with 100 ul of low serum culture media (5% charcoal/dextran treated calf serum) containing vehicle (DMSO) or test compounds or standard. Cells returned to incubator for 24 hours culture. At the termination of the challenge, 50 ul lysis buffer with HD gene specific CE, LE, BL probes was added directly into each well to initiate the is bDNA HD mRNA assay. The branched DNA assay was performed according to the manufacturer's protocol (Bayer Diagnostics; Emeryville. Calif.). At the end of the assay, the luminescence was quantitated in Dynex MLX microtiter plate luminometer. EC50's were determined by non-linear regression with a sigmoidal fit utilizing Graphpad Prism.

PPARδ = biological target: T2, PPARδ (Homo sapiens, UniProt Q03181); test: Transfection Assay for PPARδ Receptors (PPAR-Gal4 receptor / Gal4-Luciferase Reporter, HEK293 cells); assay type: cell-based; settings: for PPARδ FI: fold induction, unbracketed values, PPARδ standard FI = 36.1
T2 sequence (Q03181 171-441 limits assumed): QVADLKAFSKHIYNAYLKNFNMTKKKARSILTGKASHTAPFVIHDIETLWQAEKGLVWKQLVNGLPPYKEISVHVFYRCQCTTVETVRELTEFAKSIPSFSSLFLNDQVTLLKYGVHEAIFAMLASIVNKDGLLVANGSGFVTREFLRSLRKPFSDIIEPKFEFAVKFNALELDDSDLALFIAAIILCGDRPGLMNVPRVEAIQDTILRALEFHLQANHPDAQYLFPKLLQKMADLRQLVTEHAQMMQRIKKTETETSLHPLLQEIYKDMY
Description: Transfection Assay for PPARδ Receptors
HEK293 cells were grown in DMEM/F-12 Media supplemented with 10% FBS and glutamine (GIBCOBRL). The cells were co-transfected with DNA for PPAR-Gal4 receptor and Gal4-Luciferase Reporter using the DMRIE-C Reagent. On the following day, the DNA-containing medium were replaced with 5% Charcoal treated FBS growth medium. After six hours, cells were seeded in 96 well plate and incubated at 37° C. in CO2 incubator overnight. Cells were challenged by test compounds and incubated for 24 hours at 37° C. in 5% CO2 incubator. Luciferase activity was assayed using the Steady-Glo Luciferase Assay Kit from Promega. DMRIE-C Reagent was purchased from GIBCO Cat. No. 10459-014. OPTI-MEM I Reduced Serum Medium was purchased from GIBCO Cat. No. 31985. Steady-Glo Luciferase Assay Kit was obtained from Promega Part# E254B.

PPARγ = biological target: T3, PPARγ (Homo sapiens, UniProt P37231); test: aP2 Assay for PPAR Gamma Agonists (bDNA aP2 mRNA, preadipocytes); assay type: cell-based; settings: for PPARγ FI: fold induction, unbracketed values, PPARγ standard FI = 70.3
T3 construct: Following the challenge of the preadipocytes, cells may be lysed with lysis buffer; endogenous in cells; host or cells: preadipocytes
T3 sequence (P37231 1-505): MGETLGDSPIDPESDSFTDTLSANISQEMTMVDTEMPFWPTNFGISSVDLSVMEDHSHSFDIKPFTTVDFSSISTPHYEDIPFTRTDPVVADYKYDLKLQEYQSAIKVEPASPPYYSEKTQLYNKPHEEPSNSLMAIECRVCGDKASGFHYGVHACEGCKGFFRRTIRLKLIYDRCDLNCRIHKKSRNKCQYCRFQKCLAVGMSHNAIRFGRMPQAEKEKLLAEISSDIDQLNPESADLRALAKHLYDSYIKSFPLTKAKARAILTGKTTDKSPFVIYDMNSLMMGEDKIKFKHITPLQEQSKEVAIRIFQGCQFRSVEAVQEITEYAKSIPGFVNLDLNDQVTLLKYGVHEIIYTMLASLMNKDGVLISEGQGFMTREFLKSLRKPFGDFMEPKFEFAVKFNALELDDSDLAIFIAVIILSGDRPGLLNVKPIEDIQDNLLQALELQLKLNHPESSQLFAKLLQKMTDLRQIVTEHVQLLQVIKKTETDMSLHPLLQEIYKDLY
Description: aP2 Assay for PPAR Gamma Agonists
The procedure is described in detail in Burris et al., Molecular Endocrinology 1999, 13:410, which is hereby incorporated by reference in its entirety, and aP2 assay results of agonist intrinsic activity may be presented as fold increase over vehicle in induction of aP2 mRNA production.
Twenty-four hours after the initial seeding of the 96-well plates by hand (around 20,000/well), the differentiation assay may be initiated. Medium may be removed and replaced with 150 μl of differentiation medium containing vehicle (DMSO) or test compounds. Cells may be returned to incubator for 24 hours culture. At the termination of the challenge, medium may be removed and 100 ul of lysis buffer may be added to initiate the bDNA aP2 mRNA assay. The branched DNA assay may be performed according to the manufacturer's protocol (Bayer Diagnostics; Emeryville, Calif.). Result may be expressed as the fold increase of aP2 mRNA production activated over vehicle controls. EC50's and Emax may be determined by non-linear regression with a sigmoidal fit curve.
Following the challenge of the preadipocytes, cells may be lysed with lysis buffer (Bayer Diagnostics) containing the aP2 oligonucleotides. After a 15 minute incubation at 53° C. or 30 minutes at 37° C. incubator, 70 ul of the lysis buffer from each well may be added to a corresponding capture well (preincubated with 70 ul of blocking buffer (Bayer Diagnostics)). The capture plate may be incubated overnight at 53° C. in a plate incubator (Bayer Diagnostics). After this incubation, the bDNA and labeled probes may be annealed as directed by the manufacturer. Following a 30-minute incubation with the luminescent alkaline phosphatase substrate, dioxitane, the luminescence may be quantitated in a Dynex MLX microtiter plate luminometer. Oligonucleotide probes designed to anneal to the aP2 mRNA and function in the bDNA mRNA detection system are designed with ProbeDesigner software (Bayer Diagnostics). This software package analyzes a target sequence of interest with a series of algorithms in order to determine which regions of the sequence can perform as locations for capture, label, or spacer probe annealing. The sequences of the oligonucleotides are as follows: […]

[1] = Comparison of activity of (R) and (S) isomer (test not stated); settings: chiral center on C-2 of the indane ring
Description: Unless otherwise mentioned or indicated, the chemical designation of compounds denotes the mixture of all possible stereochemically isomeric forms, said mixtures containing all diastereomers and enantiomers of the basic molecular structure. More in particular, stereogenic centers may have the (R)- or (S)-configuration; substituents on bivalent cyclic saturated radicals may have either the cis- or trans-configuration. The invention encompasses stereochemically isomeric forms including diastereoisomers, as well as mixtures thereof in any proportion of the disclosed compounds. The disclosed compounds may also exist in their tautomeric forms. Such forms although not explicitly indicated in the above and following formulae are intended to be included within the scope of the present invention. For example, in compound 2.1 or Example 3, there is a chiral center on the C-2 of the indane ring.

| Compound | EC50 (PPARα) [nM] | EC50 (PPARδ; bracketed values) [µM] | EC50 (PPARγ; bracketed values) [µM] | PPARδ FI (PPARδ) | PPARγ FI (PPARγ) | activity of the (R) isomer relative to the (S) isomer [1] |
| --- | --- | --- | --- | --- | --- | --- |
| CCN(C(=O)Nc1ccc(N(C)C)cc1)C1Cc2ccc(SC(C)(C)C(=O)O)cc2C1 (stereo not shown) [Example 7, 2-{2-[3-(4-Dimethylaminophenyl)-1-ethylureido]indan-5-ylsulfanyl}-2-methylpropionic acid] |  |  |  | 0.8 | 0 |  |
| CCCCCN(C(=O)Nc1ccc(N(C)C)cc1)C1Cc2ccc(SC(C)(C)C(=O)O)cc2C1 (stereo not shown) [Example 9, 2-{2-[3-(4-Dimethylaminophenyl)-1-pentylureido]indan-5-ylsulfanyl}-2-methylpropionic acid] |  |  |  | 1.0 | 2.9 |  |
| CCCCCN(C(=O)Nc1ccc(C(C)C)cc1)C1Cc2ccc(SC(C)(C)C(=O)O)cc2C1 (stereo not shown) [Example 10, 2-{2-[3-(4-Isopropylphenyl)-1-(pentyl)ureido]indan-5-ylsulfanyl}-2-methylpropionic acid] | 165 |  |  |  | 5.1 |  |
| CCCCCN(C(=O)Nc1ccc(C(C)(C)C)cc1)C1Cc2ccc(SC(C)(C)C(=O)O)cc2C1 (stereo not shown) [Example 11, 2-{2-[3-(4-tert-butylphenyl)-1-(pentyl)ureido]indan-5-ylsulfanyl}-2-methylpropionic acid] | 173 |  |  |  | 6.1 |  |

Now from value to compound, other results behind:

| EC50 (PPARα) [nM] | EC50 (PPARδ; bracketed values) [µM] | EC50 (PPARγ; bracketed values) [µM] | PPARδ FI (PPARδ) | PPARγ FI (PPARγ) | Compound | activity of the (R) isomer relative to the (S) isomer [1] |
| --- | --- | --- | --- | --- | --- | --- |
| 8 | > 10 | > 10 |  |  | CCN(C(=O)Nc1ccc(OC(F)(F)F)cc1)[C@@H]1Cc2ccc(SC(C)(C)C(=O)O)cc2C1 [Example 3, (R)-2-{2-[1-Ethyl-3-(4-trifluoromethoxyphenyl)ureido]indan-5-ylsulfanyl}-2-methylpropionic acid] | more active than the (S) isomer |
|  |  |  | 5.9 | 1.9 | CCCCCN(C(=O)Nc1ccc(OC(F)(F)F)cc1)C1Cc2ccc(SC(C)(C)C(=O)O)cc2C1 (stereo not shown) [Example 8, 2-Methyl-2-{2-[1-pentyl-3-(4-trifluoromethoxyphenyl)ureido]indan-5-ylsulfanyl}-2-methylpropionic acid] |  |
|  |  |  | 1.3 | 0.3 | CCCCCCN(C(=O)Nc1ccc(OC(F)(F)F)cc1)C1Cc2ccc(SC(C)(C)C(=O)O)cc2C1 (stereo not shown) [Example 14, 2-Methyl-2-{2-[1-hexyl-3-(4-trifluoromethoxyphenyl)ureido]indan-5-ylsulfanyl}propionic acid] |  |
